Consider 28 compounds from patent US9920010B2, “CXCR7 receptor modulators” (IDORSIA PHARMACEUTICALS LTD, priority 2013, dated 2018).

In the test the target is T1, CXCR7 (Homo sapiens, UniProt P25106).
T1 construct: host or cells: CHO-K1 (PathHunter CHO-K1 CXCR7 b-arrestin cell line, stably transfected)
T1 sequence (P25106 whole entry): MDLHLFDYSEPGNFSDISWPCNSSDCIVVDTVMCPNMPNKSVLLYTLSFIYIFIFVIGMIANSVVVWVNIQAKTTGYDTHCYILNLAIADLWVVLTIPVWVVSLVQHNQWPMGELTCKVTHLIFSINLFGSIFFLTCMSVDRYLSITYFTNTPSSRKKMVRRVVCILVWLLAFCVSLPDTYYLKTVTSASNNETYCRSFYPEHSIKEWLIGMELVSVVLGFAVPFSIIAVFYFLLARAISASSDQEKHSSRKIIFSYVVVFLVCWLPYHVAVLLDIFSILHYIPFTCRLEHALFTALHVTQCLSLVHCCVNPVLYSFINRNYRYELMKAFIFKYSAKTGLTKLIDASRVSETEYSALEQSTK
T1 sequence (P32121 whole entry partner): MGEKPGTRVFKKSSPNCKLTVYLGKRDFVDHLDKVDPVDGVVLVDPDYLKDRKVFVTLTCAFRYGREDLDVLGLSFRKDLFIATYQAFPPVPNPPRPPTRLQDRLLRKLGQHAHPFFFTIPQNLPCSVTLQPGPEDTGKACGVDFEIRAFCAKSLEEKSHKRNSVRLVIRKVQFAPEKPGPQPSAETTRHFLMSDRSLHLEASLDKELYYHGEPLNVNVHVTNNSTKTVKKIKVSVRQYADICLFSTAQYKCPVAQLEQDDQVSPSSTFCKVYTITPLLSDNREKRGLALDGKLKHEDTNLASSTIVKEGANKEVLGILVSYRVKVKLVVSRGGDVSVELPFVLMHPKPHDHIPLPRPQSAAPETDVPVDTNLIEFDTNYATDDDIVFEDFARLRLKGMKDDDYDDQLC
The experiment in a line: PathHunter CHO-K1 CXCR7 b-arrestin recruitment assay (CXCR7 agonistic activity). It counts as cell-based. The conditions noted are these: PathHunter CHO-K1 CXCR7 b-arrestin cell line. As for the experimental part: The CXCl12 receptor and CXCR7 agonistic activities of the compounds of formula (I) are determined in accordance with the following experimental method.
The assay is using the PathHunter™ CHO-K1 CXCR7 b-arrestin cell line from DiscoverX. The system is based on the Enzyme Fragment Complementation Technology. Two complementing fragments of the b-galactosidase enzyme are expressed within stably transfected cells. The larger portion of b-gal, termed EA for Enzyme Acceptor, is fused to the C-terminus of b-arrestin 2. The smaller fragment, termed ProLink™ tag, is fused to CXCR7 at the C-terminus. Upon activation, b-arrestin is recruited which forces the interaction of ProLink and EA, allowing complementation of the two fragments of b-gal and the formation of a functional enzyme which is capable of hydrolysing the substrate and generating a chemiluminescent signal.
CHO-K1 CXCR7 b-arrestin cells are detached from culture dishes with a cell dissociation buffer (Invitrogen, #13151-014) and collected in growing medium (F12 HAMS 90% (v/v)/FCS 10% (v/v), Penicillin/streptomycin 1% (v/v)). 5000 cells per well (in 20 μl) are seeded in a 384 well plate (white-walled, clear bottom; BD Falcon #353274). The plate is incubated at 37° C./5% CO2 for 24 hours. Medium is then replaced by 20 μl OPTIMEM (Invitrogen #31985) for 3 to 4 hours. Test compounds are dissolved at 10 mM in DMSO and serially diluted in DMSO to 200× of the final concentration for dose response curves. Compounds are then diluted 1:33.3 in HBSS1×. 5 μl/well of HBSS1×/20 mM HEPES/0.2% BSA are added to the assay plate followed by addition of 5 μl/well of diluted compounds. CXCL12 (Peprotech #300-28A) may be used as a reference agonist. The plate is incubated for 90 minutes at 37° C. 12 μl of detection reagent (Path Hunter Detection Kit, DiscoveRx, #93-0001) is transferred to the assay plate and to the plate is incubated for 1 hour at room temperature. Luminescent signal is read in a microplate reader (FLUOstar Optima, bmg). The calculated EC50 values may fluctuate depending on the daily cellular assay performance. Fluctuations of this kind are known to those skilled in the art. Average EC50 values from several measurements are given as geometric mean values.
For orientation: Arrestin recruitment assays detect the binding of arrestin to an activated receptor.
As a reminder, the EC50 is the concentration needed to bring the measured effect to its halfway point. Regarding `CN1CCc2c(cccc2NCC(=O)N(Cc2ccccc2)CC2CC2)C1` [Example 175, N-Benzyl-N-cyclopropylmethyl-2-(2-methyl-1,2,3,4-tetrahydro-isoquinolin-5-ylamino)-acetamide], the response was half-maximal at 339 nM (EC50).

The compound `C=CCOC(=O)N1CCc2c(cccc2NCC(=O)N(CCNC)Cc2ccccc2C(F)(F)F)C1` [compound 397, 5-({[(2-Methylamino-ethyl)-(2-trifluoromethyl-benzyl)-carbamoyl]-methyl}-amino)-3,4-dihydro-1H-isoquinoline-2-carboxylic acid allyl ester] yielded an EC50 of 35 nM.

Take `CC(C)(O)CN(Cc1ncccc1Cl)C(=O)CNc1cccc2c1CCN(CC1CC1)C2` [Example 251, N-(3-Chloro-pyridin-2-ylmethyl)-2-(2-cyclopropylmethyl-1,2,3,4-tetrahydro-isoquinolin-5-ylamino)-N-(2-hydroxy-2-methyl-propyl)-acetamide]: the EC50 is 24 nM.

Regarding `Cc1csc(CN(Cc2ccccc2C(F)(F)F)C(=O)CNc2cccc3c2CCN(CC2CC2)C3)n1` [Example 77, 2-(2-Cyclopropylmethyl-1,2,3,4-tetrahydro-isoquinolin-5-ylamino)-N-(4-methyl-thiazol-2-ylmethyl)-N-(2-trifluoromethyl-benzyl)-acetamide], the EC50 is 46 nM.

Compound `CC(C)CCN(Cc1ccccc1C(F)(F)F)C(=O)CNc1cccc2c1CCN(CC1CC1)C2` [Example 48, 2-(2-Cyclopropylmethyl-1,2,3,4-tetrahydro-isoquinolin-5-ylamino)-N-(3-methyl-butyl)-N-(2-trifluoromethyl-benzyl)-acetamide] gave an EC50 of 52 nM.

As for `CN(C)CCN(Cc1ccccc1C(F)(F)F)C(=O)CNc1cccc2c1C(C)(C)CN(CC1CC1)C2` [Example 91, 2-(2-Cyclopropylmethyl-4,4-dimethyl-1,2,3,4-tetrahydro-isoquinolin-5-ylamino)-N-(2-dimethylamino-ethyl)-N-(2-trifluoromethyl-benzyl)-acetamide], it took 1 nM to reach a half-maximal effect (EC50).

In turn, `CCN1CCc2c(cccc2OCC(=O)N(CCN(C)C)Cc2ccccc2C(F)(F)F)C1` [compound 173, N-(2-Dimethylamino-ethyl)-2-(2-ethyl-1,2,3,4-tetrahydro-isoquinolin-5-yloxy)-N-(2-trifluoromethyl-benzyl)-acetamide] returned an EC50 of 5 nM.

`CN(C)CCN(CCc1ccccc1C(F)(F)F)C(=O)CNc1cccc2c1CCN(CC1CC1)C2` [Example 57, 2-(2-Cyclopropylmethyl-1,2,3,4-tetrahydro-isoquinolin-5-ylamino)-N-(2-dimethylamino-ethyl)-N-[2-(2-trifluoromethyl-phenyl)-ethyl]-acetamide] yielded a concentration for a half-maximal effect (EC50) of 24 nM.

Consider `CCN1CCc2cccc(NCC(=O)N(Cc3ccccc3C(F)(F)F)C3CCCN(C)C3)c2C1` (racemic) [compound 518], for which the concentration giving a half-maximal response (EC50) stood at 9 nM.

`NCCN(Cc1ccccc1C(F)(F)F)C(=O)CNc1cccc2c1CCN(CC1CC1)C2` [compound 442, N-(2-Amino-ethyl)-2-(2-cyclopropylmethyl-1,2,3,4-tetrahydro-isoquinolin-5-ylamino)-N-(2-trifluoromethyl-benzyl)-acetamide] gave an EC50 of 10 nM.

`C=CCN1CCc2cccc(CCC(=O)N(CCN(C)C)Cc3ccccc3C(F)(F)F)c2C1` [compound 468, 3-(2-Allyl-1,2,3,4-tetrahydro-isoquinolin-8-yl)-N-(2-dimethylamino-ethyl)-N-(2-trifluoromethyl-benzyl)-propionamide] registered an EC50 of 10 nM.

With `CN(C)CCN(Cc1ccccc1C(F)(F)F)C(=O)CNc1ccc(Cl)c2c1CCN(CC1CC1)C2` [Example 287, 2-(8-Chloro-2-cyclopropylmethyl-1,2,3,4-tetrahydro-isoquinolin-5-ylamino)-N-(2-dimethylamino-ethyl)-N-(2-trifluoromethyl-benzyl)-acetamide], it took 150 nM to reach a half-maximal effect (EC50).

The compound `COc1ccc2c(c1NCC(=O)N(CCN(C)C)Cc1ccccc1C(F)(F)F)CCN(CC1CC1)C2` [Example 89, 2-(2-Cyclopropylmethyl-6-methoxy-1,2,3,4-tetrahydro-isoquinolin-5-ylamino)-N-(2-dimethylamino-ethyl)-N-(2-trifluoromethyl-benzyl)-acetamide] came in with an EC50 of 8 nM.

As to `CN(C)CCN(Cc1ccccc1)C(=O)COc1cccc2c1CN(C)CC2` [Example 201, N-Benzyl-N-(2-dimethylamino-ethyl)-2-(2-methyl-1,2,3,4-tetrahydro-isoquinolin-8-yloxy)-acetamide], the concentration giving a half-maximal response (EC50) worked out at 27 nM.

`C#CCOC(=O)N1CCc2c(cccc2NCC(=O)N(CCNC)Cc2ccccc2C(F)(F)F)C1` [compound 396, 5-({[(2-Methylamino-ethyl)-(2-trifluoromethyl-benzyl)-carbamoyl]-methyl}-amino)-3,4-dihydro-1H-isoquinoline-2-carboxylic acid prop-2-ynyl ester] showed an EC50 of 38 nM.

Consider `CCNC(=O)N1CCc2c(cccc2NCC(=O)N(CCNC)Cc2ncccc2C(F)(F)F)C1` [compound 429, 5-({[(2-Methylamino-ethyl)-(3-trifluoromethyl-pyridin-2-ylmethyl)-carbamoyl]-methyl}-amino)-3,4-dihydro-1H-isoquinoline-2-carboxylic acid ethylamide], for which the EC50 amounted to 7 nM.

The compound `CN(C)CCN(Cc1ncccc1Cl)C(=O)CNc1cccc2c1CN(C1CCC1)CC2` [compound 455, N-(3-Chloro-pyridin-2-ylmethyl)-2-(2-cyclobutyl-1,2,3,4-tetrahydro-isoquinolin-8-ylamino)-N-(2-dimethylamino-ethyl)-acetamide] yielded an EC50 of 10 nM.

With `O=C(CNc1cccc2c1CCN(CC1CC1)C2)N(CCc1ccc(F)cc1)Cc1ccccc1` [Example 75, N-Benzyl-2-(2-cyclopropylmethyl-1,2,3,4-tetrahydro-isoquinolin-5-ylamino)-N-[2-(4-fluoro-phenyl)-ethyl]-acetamide], the 50% effective concentration (EC50) worked out at 137 nM.

Turning to `CCN(CC)CCN(Cc1ccccc1)C(=O)CNc1cccc2c1CN(CC)CC2` [compound 490, N-Benzyl-N-(2-diethylamino-ethyl)-2-(2-ethyl-1,2,3,4-tetrahydro-isoquinolin-8-ylamino)-acetamide], the concentration giving a half-maximal response (EC50) worked out at 21 nM.

For `N#CCCN(Cc1ccccc1)C(=O)CNc1cccc2c1CCN(CC1CC1)C2` [Example 67, N-Benzyl-N-(2-cyano-ethyl)-2-(2-cyclopropylmethyl-1,2,3,4-tetrahydro-isoquinolin-5-ylamino)-acetamide], it took 115 nM to reach a half-maximal effect (EC50).

Turning to `CCN1CCc2cccc(NCC(=O)N(CCN(C)C)Cc3cccc(F)c3)c2C1` [compound 503], a half-maximal effect (EC50) was put at 65 nM.

For the compound `CN1CCCC1CCN(Cc1ccccc1C(F)(F)F)C(=O)CNc1cccc2c1CCN(CC1CC1)C2` (stereo not shown) [Example 213, 2-(2-Cyclopropylmethyl-1,2,3,4-tetrahydro-isoquinolin-5-ylamino)-N-[2-(1-methyl-pyrrolidin-2-yl)-ethyl]-N-(2-trifluoromethyl-benzyl)-acetamide], a half-maximal response (EC50) required 2 nM.

With `CN(C)CCN(Cc1cncc(Cl)c1)C(=O)CNc1cccc2c1CCN(CC1CC1)C2` [Example 262, N-(5-Chloro-pyridin-3-ylmethyl)-2-(2-cyclopropylmethyl-1,2,3,4-tetrahydro-isoquinolin-5-ylamino)-N-(2-dimethylamino-ethyl)-acetamide], a half-maximal response (EC50) required 62 nM.

Take `O=C(CNc1cccc2c1CN(CC1CC1)CC2)N(CCN1CCCC1)Cc1ccccc1C(F)(F)F` [compound 565, 2-(2-Cyclopropylmethyl-1,2,3,4-tetrahydro-isoquinolin-8-ylamino)-N-(2-pyrrolidin-1-yl-ethyl)-N-(2-trifluoromethyl-benzyl)-acetamide]: the response was half-maximal at 4 nM (EC50).

For the compound `CCN1CCc2cccc(NCC(=O)N(CCN(C)C)Cc3ccccn3)c2C1` [compound 540], the concentration giving a half-maximal response (EC50) was determined as 220 nM.

The compound `O=C(/C=C/c1cccc2c1CCN(CC1CC1)C2)N(CCc1ccc(F)cc1)Cc1ccccc1` [compound 148] had a 50% effective concentration (EC50) of 54 nM.

`CN(C)CCN(CCc1cccc(C(F)(F)F)c1)C(=O)CNc1cccc2c1CCN(CC1CC1)C2` [Example 55, 2-(2-Cyclopropylmethyl-1,2,3,4-tetrahydro-isoquinolin-5-ylamino)-N-(2-dimethylamino-ethyl)-N-[2-(3-trifluoromethyl-phenyl)-ethyl]-acetamide] had a concentration for a half-maximal effect (EC50) of 43 nM.

Compound `COCCN1CCc2c(CCC(=O)N(Cc3ncccc3Cl)CC(C)(C)O)cccc2C1` [Example 347, N-(3-Chloro-pyridin-2-ylmethyl)-N-(2-hydroxy-2-methyl-propyl)-3-[2-(2-methoxy-ethyl)-1,2,3,4-tetrahydro-isoquinolin-5-yl]-propionamide] registered an EC50 of 445 nM.
